From publication PMC6934184, “Selective DNA-PKcs inhibition extends the therapeutic index of localized radiotherapy and chemotherapy” (The Journal of Clinical Investigation, 2019)

Molecular target: T1, PAK3 (Homo sapiens, UniProt O75914)
T1 construct: purchased Thermo Fisher Scientific (Life Technologies) SelectScreen
Assay: SelectScreen Z'LYTE
Format: biochemical
How it was run: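 SelectScreen broad panel; activity (Z'LYTE, Adapta) plus binding formats. ATP: Km app for CSF1R Z'LYTE; 10 for CAMK1 Adapta. Readout = % per kinase.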

T1 sequence (O75914 whole entry): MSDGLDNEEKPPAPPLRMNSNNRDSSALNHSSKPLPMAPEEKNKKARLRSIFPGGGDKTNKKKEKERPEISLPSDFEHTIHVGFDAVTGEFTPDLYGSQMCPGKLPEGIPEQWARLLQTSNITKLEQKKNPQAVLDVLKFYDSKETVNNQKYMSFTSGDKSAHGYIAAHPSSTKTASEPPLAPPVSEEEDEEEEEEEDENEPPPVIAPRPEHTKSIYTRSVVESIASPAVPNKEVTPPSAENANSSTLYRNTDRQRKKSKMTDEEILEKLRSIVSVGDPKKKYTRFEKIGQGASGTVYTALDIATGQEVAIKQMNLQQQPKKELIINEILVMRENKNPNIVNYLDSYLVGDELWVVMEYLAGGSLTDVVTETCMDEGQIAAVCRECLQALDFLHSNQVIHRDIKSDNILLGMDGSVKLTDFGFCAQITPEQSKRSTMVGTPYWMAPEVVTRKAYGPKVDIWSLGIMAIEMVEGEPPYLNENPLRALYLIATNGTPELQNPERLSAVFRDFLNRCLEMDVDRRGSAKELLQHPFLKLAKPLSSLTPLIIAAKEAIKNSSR

Q: With CN(C(=O)CN1CCOCC1)c1ccc2sc3c(-c4cccc5c(=O)cc(N6CC7CCC(C6)O7)oc45)cccc3c2c1 [NU5455] as the compound, how does the inhibition at 1 µM read?
A: Its inhibition at 1 µM is -42.6%.
